Source: patent US9751851B2, “Molecules and compositions that inhibit gram negative bacteria and their uses” (THE TRUSTEES OF PRINCETON UNIVERSITY, priority 2013, dated 2017)

What was measured:
P. aeruginosa PA14 [1] = test: Growth of P. aeruginosa monitored by absorbance at 600 nm; format: cell-based
P. aeruginosa PA14 [2] = test: C. elegans fast killing infection assay; format: in vivo
Protocol: Methods. C. elegans fast killing assays were conducted with 90 wild-type N2 worms for each condition (30 worms/replicate, 3 replicates performed). C. elegans were propagated on NGM plates prior to eggs being harvested from gravid adults using a standard bleaching protocol (30 mL 5% bleach, 15 mL 5 M KOH, 55 mL dH2O). Harvested eggs were placed on lawns of fresh E. coli HB101 and allowed to grow for 48 hr (to reach the L4 stage) at 20° C. prior to being moved to lawns of P. aeruginosa and placed at 25° C. on sorbitol, glucose, cholesterol plates. Nematodes were scored for survival every hr for 5 hr and again at 24 hr. The % living worms was calculated in triplicate for each time point. 50 μM mBTL or an equivalent volume of DMSO was added to plates and to the bacterial cultures during growth.

[3] = tested on: A549 human lung cells infected with P. aeruginosa PA14; test: A549 human lung cell infection (propidium iodide uptake); format: cell-based; conditions: wild-type and lasR mutant strains; 100 μM compound
Protocol: Methods. Human A549 cells were grown in CellStar tissue culture flasks. Prior to infection, the A549 cells were treated with trypsin-EDTA (CellGro), split, counted, and aliquotted into 96 well plates at 20,000 mammalian cells/well (cell counts were estimated using Trypan Blue (CellGro) exclusion). Cells were grown for 20 hr at 37° C. in DMEM (Invitrogen). Cells were washed 3× with warm PBS (Gibco). 100 μL of “master mix” was added to each well for each condition. Master mix contained 1 mL pre-warmed-PBS, 5 μL of 2 mg/mL propidium iodide (Bioprobes), 1 μL of a 100 mM inhibitor stock or DMSO, and 10 μL of OD600=2 P. aeruginosa PA14 grown in the presence of mBTL or DMSO. Infections were monitored using an EnVision plate reader every 2 hr with the RFP filter supplied by GE.

With meta-bromothiolactone [mBTL] the “effect on P. aeruginosa PA14 growth” value (P. aeruginosa PA14 [1]) was “not affecting P. aeruginosa PA14 growth”, the C. elegans death (P. aeruginosa PA14 [2]; lasR mutant P. aeruginosa PA14 treated with 50 μM mBTL) was 50% and the C. elegans death (P. aeruginosa PA14 [2]; wild-type P. aeruginosa PA14 treated with 50 μM mBTL) was 23%. For the same substance, the “killing of A549 cells by P. aeruginosa” value [3] was “reduces killing”.
